PubChem BioAssay (NCI)
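Following 48 hours of exposure in 96-well plates, responses at five concentrations were used to interpolate endpoints linearly. GI50 = concentration required for 50% inhibition of growth. At the TGI there is no net growth.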

Key:
Experiment in all cases: DTP human tumour cell line panel, 48 h
[1] = system: OVCAR-8 ovarian
[2] = system: SF-268 CNS
[3] = system: RXF 393 renal
[4] = system: NCI-H226 lung
[5] = system: COLO 205 colon
[6] = system: OVCAR-4 ovarian
[7] = system: HCC-2998 colon
[8] = system: SW-620 colon
[9] = system: TK-10 renal
[10] = system: HOP-92 NSCLC

Row | SMILES | TGI [1] [µM] | TGI [2] [µM] | TGI [3] [µM] | TGI [4] [µM] | TGI [5] [µM] | TGI [6] [µM] | TGI [7] [µM] | TGI [8] [µM] | TGI [9] [µM] | TGI [10] [µM] | GI50 [10] [µM] | GI50 [1] [µM] | GI50 [2] [µM] | GI50 [3] [µM] | GI50 [4] [µM] | GI50 [5] [µM] | GI50 [6] [µM] | GI50 [7] [µM] | GI50 [8] [µM] | GI50 [9] [µM]
1 | O=C(Nc1ccc(I)cc1C(=O)NCCO)c1cccs1 | > 100 | > 100 | > 100 | > 100 | > 100 | > 100 | > 100 | > 100 | – | – | – | – | – | – | – | – | – | – | – | –
2 | Cc1ccc2c(c1)nc(N)n[n+]2[O-] | > 100 | > 100 | – | > 100 | > 100 | > 100 | – | > 100 | > 100 | – | – | – | – | – | – | – | – | – | – | –
3 | Cc1cn(C2C=CC(COP(=O)(OCC3=CC(=O)c4ccccc4C3=O)N(C)CCCCCl)O2)c(=O)[nH]c1=O (stereo unspecified) | 26.6 | 24.4 | 15.8 | 25 | 10.9 | 23.2 | 4.42 | 29.3 | 36.5 | 20.9 | – | – | – | – | – | – | – | – | – | –
4 | O=[Se]([O-])c1ccccc1.O=[Se]([O-])c1ccccc1.[OH3+].[OH3+].[Pt+2] | 20.2 | 18.2 | 40.6 | 52.5 | 18.4 | 10.3 | 55.9 | 25.2 | – | 40.7 | 14.4 | 3.03 | 6.37 | 22.7 | 12.9 | 6.78 | 2.15 | 16.6 | 5.24 | –
5 | Nc1ccccc1Nc1ccccc1C(=O)[O-].Nc1ccccc1Nc1ccccc1C(=O)[O-].[Cu+2] | > 100 | > 100 | – | – | > 100 | > 100 | > 100 | > 100 | > 100 | – | – | – | – | – | – | – | 37.7 | – | – | –
6 | O=C(NS(=O)(=O)Nc1ccc(Cl)cc1)OCc1ccc(Cl)cc1Cl | 90.7 | 20.6 | – | – | 32.3 | 76.9 | 30.9 | > 100 | 41.9 | 61.9 | – | – | – | – | – | – | – | – | – | –
7 | COc1ccc(Nc2[nH]c(C(C)=O)c(N)c2C(=S)Nc2ccccc2)cc1 | > 100 | > 100 | 77.7 | > 100 | 48.1 | > 100 | > 100 | > 100 | > 100 | > 100 | – | – | – | – | – | – | – | – | – | –
8 | CCn1cc(C(c2ccc(Cl)cc2)n2ccnc2)c2cc(Br)ccc21 (stereo unspecified) | 31.6 | 27.4 | 29.9 | 76.5 | 35.1 | 22.8 | 29 | – | 33.7 | 19.4 | – | – | – | – | – | – | – | – | – | –
9 | COc1cc2oc(-c3ccc(O)cc3)c(OC3OC(C)C(O)C(O)C3O)c(=O)c2c(O)c1OC (stereo unspecified) | > 100 | > 100 | > 100 | > 100 | > 100 | > 100 | > 100 | > 100 | > 100 | > 100 | – | – | – | – | – | – | – | – | – | –
10 | Nc1n[nH]c(=O)[nH]1 | > 100 | > 100 | > 100 | > 100 | > 100 | > 100 | > 100 | > 100 | – | > 100 | – | – | – | – | – | – | – | – | – | –
11 | N#Cc1c(NC(=S)NC(=O)c2ccccc2)nc2c(c1-c1ccccc1)CCC2 | > 100 | > 100 | – | – | > 100 | > 100 | – | > 100 | > 100 | – | – | – | – | – | – | – | – | – | – | –
12 | C=CC(=O)Nc1cccc(-c2nc(SC)nc(Nc3ccccc3OC)c2C#N)c1 | 5.42 | 14.3 | 5.42 | 36.1 | 5.33 | – | 8.66 | – | 4.02 | 4.28 | 1.7 | 2.07 | 2.85 | 1.95 | 9.7 | 1.95 | – | 2.58 | – | 1.99
13 | OCC1CCCC(n2cnc3c(=S)nc[nH]c32)O1 (stereo unspecified) | > 100 | > 100 | > 100 | > 100 | > 100 | > 100 | > 100 | > 100 | > 100 | > 100 | – | – | – | – | – | – | – | – | – | –
14 | O=C1CC(=O)N(c2ccccc2)N1/C(=C/c1ccccc1)c1ccccc1 | 45.3 | 36.3 | 36.5 | 73.5 | 36.6 | 60.5 | 37.3 | 37.7 | 48.6 | 31.3 | – | – | – | – | – | – | – | – | – | –
15 | Cc1[nH]c(/C=C2\C(=O)Nc3ccc(S(=O)(=O)Cc4c(Cl)cccc4Cl)cc32)c(C)c1C(=O)N1CCC[C@@H]1CN1CCCC1 | 4.37 | 4.03 | – | 54.8 | 22.6 | 70.7 | 3.6 | 3.29 | 3.85 | > 44 | 2.09 | 1.88 | 1.6 | – | 15.1 | 9.15 | 26.1 | 1.95 | 1.78 | 1.92
16 | O=C(O)c1ccc(NC(c2ccccc2)c2ccc3cccnc3c2O)cc1 (stereo unspecified) | > 41.5 | > 100 | 28.8 | > 31 | > 86.9 | 36.6 | > 74.8 | > 55.8 | 71.6 | > 100 | – | – | – | – | – | – | – | – | – | –
17 | CCC(=O)C(c1ccccc1)c1ccccn1 (stereo unspecified) | > 100 | > 100 | > 100 | > 100 | > 100 | > 100 | > 100 | > 100 | > 100 | > 100 | – | – | – | – | – | – | – | – | – | –
18 | CC(C)CC(N)C(=O)OCN1C(=O)C2C3C=CC(C2C1=O)C1C2C(=O)N(COC(=O)C(N)CC(C)C)C(=O)C2C31 (stereo unspecified) | > 100 | > 100 | > 100 | > 100 | > 100 | > 100 | > 100 | > 75.6 | > 100 | > 100 | – | – | – | – | – | – | – | – | – | –
19 | COC1OC(=O)[C@H]2O[N+]([O-])=C(C)[C@@H]12 (stereo partly specified) | > 100 | > 100 | > 100 | > 100 | > 100 | > 100 | > 100 | > 100 | – | > 100 | – | – | – | – | – | – | – | – | – | –
